“And” between values parts separate entries of the source, which are not always exact repeats. Equal entries are not always repeated. Where two headings read alike, the source gives them in different places.
Assays:
[1] = test system: tbaqp2/tbaqp3 null cells expressing TbAQP2WT; assay: microbe, parasite or virus in culture; format: cell-based, Trypanosoma brucei brucei
[2] = test system: tbaqp2/tbaqp3 null cells expressing TbAQP2^L258Y; format: cell-based, Trypanosoma brucei brucei
[3] = test system: tbaqp2/tbaqp3 null cells expressing TbAQP2^I110W/L264R; format: cell-based, Trypanosoma brucei brucei
[4] = test system: tbaqp2/tbaqp3 null cells expressing TbAQP2^I190T; format: cell-based, Trypanosoma brucei brucei
[5] = test system: tbaqp2/tbaqp3 null cells expressing TbAQP2 L118W; assay: microbe, parasite or virus in culture; format: cell-based, Trypanosoma brucei brucei
[6] = test system: tbaqp2/tbaqp3 null cells expressing TbAQP3^W102I/R256L; format: cell-based, Trypanosoma brucei brucei
[7] = test system: tbaqp2/tbaqp3 null cells expressing TbAQP3^W102I/R256L/Y250L; format: cell-based, Trypanosoma brucei brucei
tbaqp2 null (AQP2-KO) = assay: Drug sensitivity assay (resazurin); format: cell-based; details: Trypanosoma brucei, read-out: EC50 AQP2-KO AVG, AQP2-KO / tbaqp2 null; 48 h drug + 24 h resazurin
[8] = test system: tbaqp1-2-3 null cells expressing TbAQP2 position 84, 118 and 218 Trp and Met mutants; assay: Drug sensitivity assay (resazurin), pentamidine and SHAM; format: cell-based, Trypanosoma brucei brucei
tbaqp2/tbaqp3 null cells = assay: [3H]-pentamidine transport; format: cell-based, Trypanosoma brucei brucei
TbAQP2WT [9] = target: TbAQP2WT (Trypanosoma brucei brucei, UniProt Q6ZXT3); assay: cell-based
TbAQP2WT [10] = assay: cell-based; parameters: species or system Trypanosoma brucei brucei
TbAQP2^I110W = TbAQP2^I110W (Trypanosoma brucei brucei, UniProt Q6ZXT3, I110W); assay: [3H]-pentamidine transport; format: cell-based; details: 30 nM [3H]-pentamidine
TbAQP3 = TbAQP3 (Trypanosoma brucei brucei, UniProt Q6ZXT2); format: cell-based
[11] = target: T1, aqp1/aqp2/aqp3 null cells expressing TbAQP2-WT (Trypanosoma brucei brucei, UniProt Q6ZXT3); assay: Inhibition of [3H]-glycerol uptake; format: cell-based; details: for glycerol uptake: zero inhibitor point 0.002246
T1 sequence (Q6ZXT3 1-312): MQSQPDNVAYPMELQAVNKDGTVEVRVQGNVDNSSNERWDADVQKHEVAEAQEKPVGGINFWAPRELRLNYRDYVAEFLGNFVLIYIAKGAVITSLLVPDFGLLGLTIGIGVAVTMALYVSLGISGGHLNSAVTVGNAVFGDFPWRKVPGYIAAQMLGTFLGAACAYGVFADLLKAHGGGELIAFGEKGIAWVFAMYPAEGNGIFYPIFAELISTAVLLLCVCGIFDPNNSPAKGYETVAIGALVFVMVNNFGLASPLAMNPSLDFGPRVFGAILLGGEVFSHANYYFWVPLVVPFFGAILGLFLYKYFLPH

3×HA tagged TbAQP2 = target: T2, 3×HA tagged TbAQP2 (Trypanosoma brucei brucei, UniProt Q6ZXT3); format: cell-based
T2 construct: expressed in transfected cells; host or cells: T. brucei 2T1 bloodstream forms, tetracycline-induced

[12] = Trypanosoma brucei, read-out: Alamar blue EC50, MEAN
[13] = read-out: Alamar blue EC50, single repeats
[14] = AQP2/3-dKO, 30 nM [3H]-pentamidine, 1 mM adenosine
[15] = Fig. 3A, exp AQP016-AQP023, AQP2/3-dKO
[16] = Fig. 3A, exp AQP038-AQP041, AQP2/3-dKO
[17] = dKO control of the AQP3 mutant series, over 30 minutes

Sequence of TbAQP3 (Q6ZXT2 whole entry): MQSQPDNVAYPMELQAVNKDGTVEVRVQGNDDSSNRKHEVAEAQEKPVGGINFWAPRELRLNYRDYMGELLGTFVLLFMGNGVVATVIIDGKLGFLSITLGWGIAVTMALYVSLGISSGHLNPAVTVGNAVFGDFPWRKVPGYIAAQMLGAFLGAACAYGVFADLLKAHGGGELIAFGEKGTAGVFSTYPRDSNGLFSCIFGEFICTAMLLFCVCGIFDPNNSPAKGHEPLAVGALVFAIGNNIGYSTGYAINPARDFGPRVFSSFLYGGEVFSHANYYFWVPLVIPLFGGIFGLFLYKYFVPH
Sequence of TbAQP2^I110W (Q6ZXT3 whole entry I110W): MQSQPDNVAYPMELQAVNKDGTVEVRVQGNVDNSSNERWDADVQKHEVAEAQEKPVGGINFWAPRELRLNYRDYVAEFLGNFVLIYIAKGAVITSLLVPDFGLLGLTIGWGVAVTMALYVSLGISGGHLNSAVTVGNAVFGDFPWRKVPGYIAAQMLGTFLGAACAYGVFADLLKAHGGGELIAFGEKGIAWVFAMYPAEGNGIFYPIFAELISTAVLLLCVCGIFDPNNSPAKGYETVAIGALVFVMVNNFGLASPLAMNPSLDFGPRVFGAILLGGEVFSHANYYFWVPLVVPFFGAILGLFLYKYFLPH

`N=C(N)c1ccc(OCCCCCOc2ccc(C(=N)N)cc2)cc1` [Pentamidine] was tested, and the “EC50, percent of AQP2/3 null EC50” value [1] was 0.08% and 0.0842% and 1.40% and 0.16%, the EC50 [1, 12] was 0.84 nM and the EC50 ([1]; read-out: Alamar blue EC50, MEAN) was 1.61 nM. The EC50 [1, 13] was 1.5 nM, the “EC50, percent of AQP2/3 null EC50” value [2] was 0.50% and the “EC50 as percent of AQP2/3 null EC50, MEAN” value (shortened to “EC50 as percent”) [3] was 101.41%. The “EC50 as percent” value [4] was 6.89%, the EC50 [5, 12] was 46.3 nM and the EC50 ([5]; Trypanosoma brucei, read-out: Alamar blue EC50, single repeats) was 52.4 nM. The EC50 ([5]; Trypanosoma brucei, read-out: EC50 AVG) was 46.3 nM, the EC50 [5, 13] was 40.8 nM and 45.7 nM and the “EC50 as percent” value [6] was 83.83%. For the same molecule, the “EC50 as percent” value [7] was 31.94%, the EC50 (tbaqp2 null (AQP2-KO)) was 130 nM and the EC50 ([8]; +L84M in aqp1-3 triple KO, read-out: Alamar blue EC50, single repeats) was 0.8 nM and 0.9 nM. The EC50 ([8]; +L84W in aqp1-3 triple KO, read-out: Alamar blue EC50, single repeats) was 18.7 nM and 15.3 nM, the EC50 ([8]; +L84W/L118W in aqp1-3 triple KO, read-out: Alamar blue EC50, single repeats) was 65.7 nM and the EC50 ([8]; +L118M in aqp1-3 triple KO, read-out: Alamar blue EC50, single repeats) was 27.8 nM and 29.4 nM. For the same molecule, the EC50 ([8]; +L118W in aqp1-3 triple KO, read-out: Alamar blue EC50, single repeats) was 27.1 nM and 25.8 nM, the EC50 ([8]; +L218W in aqp1-3 triple KO, read-out: Alamar blue EC50, single repeats) was 3.9 nM and 5.3 nM and the EC50 ([8]; Trypanosoma brucei, +L84M in aqp1-3 triple KO, 3 repeats, read-out: Alamar blue EC50, MEAN) was 0.77 nM. For the same molecule, the EC50 ([8]; Trypanosoma brucei, +L84M in aqp1-3 triple KO, read-out: Alamar blue EC50, single repeats) was 0.65 nM, the EC50 ([8]; Trypanosoma brucei, +L84W in aqp1-3 triple KO, 3 repeats, read-out: Alamar blue EC50, MEAN) was 16.1 nM and the EC50 ([8]; Trypanosoma brucei, +L84W in aqp1-3 triple KO, read-out: Alamar blue EC50, single repeats) was 14.4 nM. For the same molecule, the EC50 ([8]; Trypanosoma brucei, +L84W/L118W in aqp1-3 triple KO, read-out: Alamar blue EC50, single repeats) was 53.4 nM, the EC50 ([8]; Trypanosoma brucei, +L118M in aqp1-3 triple KO, 3 repeats, read-out: Alamar blue EC50, MEAN) was 28 nM and the EC50 ([8]; Trypanosoma brucei, +L118M in aqp1-3 triple KO, read-out: Alamar blue EC50, single repeats) was 26.8 nM. It also gave an EC50 ([8]; Trypanosoma brucei, +L118W in aqp1-3 triple KO, 3 repeats, read-out: Alamar blue EC50, MEAN) of 26.6 nM, an EC50 ([8]; Trypanosoma brucei, +L118W in aqp1-3 triple KO, read-out: Alamar blue EC50, single repeats) of 26.9 nM and an EC50 ([8]; Trypanosoma brucei, +L218M in aqp1-3 triple KO, 3 repeats, read-out: Alamar blue EC50, MEAN) of 0.63 nM. For the same molecule, the EC50 ([8]; Trypanosoma brucei, +L218W in aqp1-3 triple KO, 3 repeats, read-out: Alamar blue EC50, MEAN) was 4.39 nM, the EC50 ([8]; Trypanosoma brucei, +L218W in aqp1-3 triple KO, read-out: Alamar blue EC50, single repeats) was 4 nM and the Pentamidine transport rate (tbaqp2/tbaqp3 null cells; [14]) was 0.00022 pmol/10E7 cells/s and 0.000123 pmol/10E7 cells/s. The “Pentamidine transport rate, percent of +AQP2-WT” value (tbaqp2/tbaqp3 null cells; [14]) was 0.383% and 1.05%, the “Pentamidine transport rate AVG” value (tbaqp2/tbaqp3 null cells; AQP2/3-dKO, n=16) was 2.76E-04 pmol/10E7 cells/s and the “Pentamidine transport rate, percent of +AQP2-WT, AVG” value (tbaqp2/tbaqp3 null cells; AQP2/3-dKO, n=16) was 1.08% of +AQP2-WT. For the same molecule, the “Pentamidine transport rate, AVG” value (tbaqp2/tbaqp3 null cells; Fig. 3A, exp AQP001-AQP023, AQP2/3-dKO) was 2.76E-04 pmol/10E7 cells/s, the “Pentamidine transport rate as percent of +AQP2-WT, AVG” value (tbaqp2/tbaqp3 null cells; [15]) was 1.32% and the “Pentamidine transport rate as percent of +AQP2-WT, single experiments” value (tbaqp2/tbaqp3 null cells; [15]) was 1.4% and 1.5% and 1.0%. The “Pentamidine transport rate as percent of +AQP2-WT, AVG” value (tbaqp2/tbaqp3 null cells; [16]) was 0.383%, the “Pentamidine transport rate, AVG” value (tbaqp2/tbaqp3 null cells; [16]) was 0.000123 pmol/10E7 cells/s and the “Pentamidine transport rate, single experiments” value (tbaqp2/tbaqp3 null cells; [16]) was 0.0001045 pmol/10E7 cells/s and 0.0001529 pmol/10E7 cells/s and 0.0001563 pmol/10E7 cells/s and 8.02E-05 pmol/10E7 cells/s. The Pentamidine transport rate (tbaqp2/tbaqp3 null cells; [17]) was 1.22E-04 pmol/10E7 cells/s, the “Pentamidine transport rate, percent of TbAQP2WT control” value (tbaqp2/tbaqp3 null cells; [17]) was 0.57% and the “Transport rate AVG” value (tbaqp2/tbaqp3 null cells; strain AQKO, unit not given, +AQP2-WT = 100) was 1.05. The EC50 (TbAQP2WT [9]) was 41 ± 17 nM, the “Pentamidine transport rate AVG” value (TbAQP2WT [9]) was 0.02122 pmol/10E7 cells/s and the “Pentamidine transport rate as percent of +AQP2-WT, AVG” value (TbAQP2WT [9]) was 100.0%. The “Pentamidine transport rate as percent of +AQP2-WT, single experiments” value (TbAQP2WT [9]) was 100.0%, the “Pentamidine transport rate, AVG” value (TbAQP2WT [9]) was 0.02122 pmol/10E7 cells/s and 0.03781 pmol/10E7 cells/s and the “Pentamidine transport rate, percent of +AQP2-WT, AVG” value (TbAQP2WT [9]) was 100.00% of +AQP2-WT. For the same molecule, the “Transport rate AVG” value (TbAQP2WT [9]) was 100, the activity at 0.03 µM (TbAQP2WT [9]; read-out: Pentamidine transport rate, percent of +AQP2-WT) was 100% and the Km (TbAQP2WT [10]; TbAQP2-WT cells, read-out: Km of low affinity component (LAPT1)) was 82.7 ± 17.5 µM. For the same molecule, the “[3H]-pentamidine taken up by the low affinity component” value (TbAQP2WT [10]; highly similar for TbAQP2^I190T and TbAQP2WT cell lines) was “approximately 0.0005 pmol(10^7 cells)^−1 s^−1”, the Pentamidine transport rate (TbAQP2^I110W) was 0.000216 pmol/10E7 cells/s and the Pentamidine transport rate (TbAQP3) was 1.04E-04 pmol/10E7 cells/s. For the same molecule, the “Pentamidine transport rate, percent of TbAQP2WT control” value (TbAQP3) was 0.49%, the “Transport rate AVG” value (TbAQP3) was 0.48 and the EC50 [11] was 27.5 nM. It also gave a glycerol uptake ([11]; log[inhibitor] -3.60) of 6.78e-20, a glycerol uptake ([11]; log[inhibitor] -6.48) of 0.000111 and a glycerol uptake ([11]; log[inhibitor] -7.00) of 0.000765. For the same molecule, the glycerol uptake ([11]; log[inhibitor] -7.52) was 0.00147, the glycerol uptake ([11]; log[inhibitor] -8.00) was 0.002105 and the glycerol uptake ([11]; log[inhibitor] -8.48) was 0.002143. For the same molecule, the glycerol uptake ([11]; log[inhibitor] -9.00) was 0.002263, the glycerol uptake ([11]; log[inhibitor] -9.48) was 0.002177 and the “Effect on TbAQP2 turnover rate” value (3×HA tagged TbAQP2) was “identical turnover rates”.

Reference: publication PMC7473772 (eLife, 2020)
